{"source": "patent US20040152741A1", "about": "“Arylglycine derivatives and their use as glycine transport inhibitors” (NPS Allelix Corporation, priority 2002, published 2004)", "target": "T1, GlyT-1 C (Homo sapiens, UniProt P48067)", "T1 construct": "expressed in transfected cells; QT-6 quail fibroblast cells are called preferred", "T1 sequence (P48067 1-706)": "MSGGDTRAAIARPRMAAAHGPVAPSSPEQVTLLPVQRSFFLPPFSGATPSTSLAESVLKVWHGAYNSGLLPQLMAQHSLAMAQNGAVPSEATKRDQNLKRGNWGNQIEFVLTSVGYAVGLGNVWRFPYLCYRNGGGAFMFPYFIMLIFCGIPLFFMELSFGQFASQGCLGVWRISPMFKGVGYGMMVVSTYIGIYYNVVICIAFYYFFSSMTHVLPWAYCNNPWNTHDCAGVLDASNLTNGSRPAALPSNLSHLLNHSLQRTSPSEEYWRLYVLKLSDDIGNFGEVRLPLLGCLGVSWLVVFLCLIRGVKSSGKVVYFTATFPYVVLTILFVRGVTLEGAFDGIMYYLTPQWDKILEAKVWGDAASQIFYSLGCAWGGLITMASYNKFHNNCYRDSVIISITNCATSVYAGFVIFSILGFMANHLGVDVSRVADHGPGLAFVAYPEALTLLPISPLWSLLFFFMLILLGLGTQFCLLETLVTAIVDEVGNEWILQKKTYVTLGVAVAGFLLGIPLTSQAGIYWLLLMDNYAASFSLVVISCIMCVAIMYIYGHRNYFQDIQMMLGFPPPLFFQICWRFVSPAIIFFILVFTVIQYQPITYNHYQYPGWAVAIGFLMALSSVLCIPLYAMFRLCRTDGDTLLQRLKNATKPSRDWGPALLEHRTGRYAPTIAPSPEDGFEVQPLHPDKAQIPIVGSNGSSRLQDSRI", "assay": "Assay of transport via GlyT-1: [3H]glycine uptake by stably transfected cells", "assay_type": "cell-based", "details": "cells stably transfected with GlyT-1 C; 50 nM [3H]glycine, 30 minutes at 37° C.; read-out: GlyT1 uptake IC50", "source_text": "For use in assaying for activity in inhibiting glycine transport, eukaryokic cells, preferably QT-6 cells derived from quail fibroblasts, have been transfected to express one of the three known variants of human GlyT-1, namely GlyT-1a, GlyT-1b or GlyT-1c, or human GlyT-2. The sequences of these GlyT-1 transporters are described in Kim et al., Molec. Pharm. 45: 608-617, 1994, excepting that the sequence encoding the extreme N-terminal of GlyT-1a was merely inferred from the corresponding rat-derived sequence. This N-terminal protein-encoding sequence has now been confirmed to correspond to that inferred by Kim et al. The sequence of the human GlyT-2 is described by Albert et al., U.S. Pat. No. 919,653 issued July 1999, which is incorporated herein by reference in its entirety. Suitable expression vectors include pRc/CMV (Invitrogen), Zap Express Vector (Stratagene Cloning Systems, LaJolla, Calif.; hereinafter “Stratagene”), pBk/CMV or pBk-RSV vectors (Stratagene), Bluescript II SK +/− Phagemid Vectors (Stratagene), LacSwitch (Stratagene), pMAM and pMAM neo (Clontech), among others. A suitable expression vector is capable of fostering expression of the included GlyT DNA in a suitable host cell, preferably a non-mammalian host cell, which can be eukaryotic, fungal, or prokaryotic. Such preferred host cells include amphibian, avian, fungal, insect, and reptilian cells.\nThis example illustrates a method for the measurement of glycine uptake by transfected cultured cells.\nCells stably transfected with GlyT-1 C (see Kim, et al., Molecular Pharmacology, 45, 1994:608-617) were washed twice with HEPES buffered saline (HBS). The cells were then incubated for 10 minutes at 37° C. with either (a) no potential competitor, (b) 10 mM non-radioactive glycine or (c) a concentration of a candidate drug. A range of concentrations of the candidate drug was used to generate data for calculating the concentration resulting in 50% of the effect (e.g., the IC50s, which are the concentrations of drug inhibiting glycine uptake by 50%). A solution was then added containing [^3H]glycine at a final concentration of 50 nM (17.5 Ci/mmol). The cells were then incubated with gentle shaking for another 30 minutes at 37° C., after which the reaction mixture was aspirated and washed three times with ice-cold HBS. The cells were lysed with scintillant and allowed to equilibrate. The radioactivity in the cells was determined using a scintillation counter. Data was compared between the same cells contacted or not contacted by a candidate agent, depending on the assay being conducted.", "data": [{"smiles": "COc1ccc([N+](=O)[O-])cc1NC(=S)NC(C(=O)Nc1ccc(C)c(C)c1)c1ccccc1", "note": "(stereo not shown) [Experiment E32.2, 2-[3-(2-methoxy-5-nitro-phenyl)-thioureido]-N-(3,4-dimethylphenyl)-2-phenyl acetamide]", "values": [{"measurement": "IC50", "value": 334, "unit": "nM"}]}, {"smiles": "COc1ccc([N+](=O)[O-])cc1NC(=O)NC(C(=O)Nc1ccc2c(c1)CCC2)c1ccsc1", "note": "(stereo not shown) [Experiment E42.1]", "values": [{"measurement": "IC50", "value": 114, "unit": "nM"}]}, {"smiles": "COc1ccc([N+](=O)[O-])cc1NC(=S)N[C@@H](C(=O)Nc1ccc(C)c(C)c1)c1ccccc1", "note": "[E33.1*, (R)-2-[3-(2-methoxy-5-nitro-phenyl)-thioureido]-N-(3,4-dimethylphenyl)-2-phenyl acetamide]", "values": [{"measurement": "IC50", "value": 96, "unit": "nM"}]}, {"smiles": "COc1ccc([N+](=O)[O-])cc1NC(=O)N[C@@H](C(=O)Nc1ccc2c(c1)CCC2)c1ccccc1", "note": "[E29.1*]", "values": [{"measurement": "IC50", "value": 71.9, "unit": "nM"}]}, {"smiles": "COc1ccc([N+](=O)[O-])cc1NC(=O)NC(C(=O)Nc1cccc(C(F)(F)F)c1)c1ccccc1", "note": "(stereo not shown) [Experiment E31.2, 2-[3-(2-methoxy-5-nitro-phenyl)-ureido]-N-(3-trifluoromethylphenyl)-2-phenyl acetamide]", "values": [{"measurement": "IC50", "value": 202, "unit": "nM"}]}, {"smiles": "COc1ccc([N+](=O)[O-])cc1NC(=O)N[C@@H](C(=O)Nc1ccc(C)c(C)c1)c1ccccc1", "note": "[Experiment E32.5, (R)-2-[3-(2-methoxy-5-nitro-phenyl)-ureido]-N-(3,4-dimethylphenyl)-2-phenyl acetamide]", "values": [{"measurement": "IC50", "value": 25.9, "unit": "nM"}]}, {"smiles": "COc1ccc([N+](=O)[O-])cc1NC(=S)NC(C(=O)Nc1ccc2c(c1)CCC2)c1ccsc1", "note": "(stereo not shown) [Experiment E42.2]", "values": [{"measurement": "IC50", "value": 131, "unit": "nM"}]}]}
